Laboratory results reported in US20150072416A1, “METABOLITE FOR IMPROVING PRODUCTION, MAINTENANCE AND PROLIFERATION OF PLURIPOTENT STEM CELLS, COMPOSITION COMPRISING THE SAME, AND METHOD OF CULTURING PLURIPOTENT STEM CELL USING THE SAME” (KOREA RESEARCH INSTITUTE OF BIOSCIENCE AND BIOTENOLOGY, priority 2012, published 2015).

How the values were obtained:
Assay type in all cases: cell-based
[1] = tested on: human pluripotent stem cells; test: Long-term subculture in UM with nicotinamide (TRA-1-60 staining, karyotyping)
[2] = tested on: human fibroblasts transfected with reprogramming factors; test: Reprogramming kinetics of hiPSCs (stem cell marker expression, time to colonies)
Experimental: Total RNA was isolated from produced cells using an RNeasy Mini kit (Qiagen, Valencia, Calif.) and reverse-transcribed using a SuperScript First-strand synthesis system kit (Invitrogen) according to the manufacturer's instruction. Then, semi-quantitative RT-PCR was performed using a platinum Tag SuperMix kit (Invitrogen) under the following conditions: 94° C. for 3 minutes, and then 25-30 cycles, each consisting of 94° C. for 30 sec, 60° C. for 30 sec and 72° C. for 30 sec, followed by extension at 72° C. for 10 minutes. For immunostaining, cells were seeded on Matrigel-coated 4-well Lab-Tek chamber slides (Nunc, Naperville, Ill.) and cultured for 5 days under the indicated conditions. The cells were fixed in 4% paraformaldehyde at room temperature for 15 minutes, and then washed with PBS/0.2% BSA. Next, the cells were passed through PBS/0.2% BSA/0.1% Triton X-100 for 15 minutes, and then incubated with 4% normal donkey serum (Molecular Probes, Eugene, Oreg., USA) in PBS/0.2% BSA at room temperature for 1 hour. The cells were diluted with PBS/0.2% BSA, and then reacted with primary antibody at 4° C. for 2 hours. After washing, the cells were reacted with FITC- or Alexa594-conjugated secondary antibody (Invitrogen) in PBS/0.2% BSA at room temperature for 1 hour. The cells were counter-stained with 10 μg/ml DAPI. […] From day 5 of culture (D5), the expression levels of the stem cell markers Nanog and Tra-1-60 in the cell group treated with nicotinamide increased by 3 times and 8 times, respectively, compared to those in the untreated group (FIG. 6).

[3] = tested on: H9 human embryonic stem cells; test: BrdU incorporation assay in human embryonic stem cells in mTeSR1
Experimental: For 5-bromo)-2-deoxyuridine (BrdU; BD Pharmingen, San Diego) incorporation assays, human embryonic stem cells were cultured on Matrigel-coated 4-well LabTec chamber slides for 4 days.
Specifically, for BrdU incorporation, cells were incubated in the presence of 30 μM BrdU at 37° C. for 1 hour. After washing with PBS, the cells were fixed with 4% paraformaldehyde for 15 minutes and reacted in 1N HCl at room temperature for 15 minutes. The sample was washed and reacted with 0.1 M sodium tetraborate for 15 minutes. After washing, the cells were reacted with anti-BrdU antibody in 3% BSA-containing PBS for 1 hour, and then reacted with FITC-conjugated secondary antibody for 30 minutes.
In order to verify the effect of nicotinamide on the proliferation of pluripotent stem cells, a BrdU incorporation assay was performed. Nicotinamide was added to mTeSR1 (CDM) at various concentrations, and the effects thereof were examined.

[4] = tested on: human embryonic stem cells and human induced pluripotent stem cells; test: Maintenance of undifferentiated state of pluripotent stem cells (morphology, AP staining); settings: for undifferentiated state in UM: 0.1 mM nicotinamide added to UM
Text: Human embryonic stem cells (hESC) H9 (NIH Code, WA09; WiCell Research Institute, Madison, Wis.) and H1 (NIH Code, WA01; WiCell Research Institute) and induced pluripotent stem cells (hiPSC) were each cultured with hESC culture medium (unconditioned medium; UM) or MEF-CM (conditioned medium) on γ-irradiated MEFs (mouse embryonic fibroblasts) or on plates coated with Matrigel (BD Biosciences, Franklin Lakes, N.J.). The cultured human embryonic stem cells and induced pluripotent stem cells were treated with collagenase IV (1 mg/ml; Invitrogen) or dispase (1 mg/ml; Invitrogen) once a week and subcultured. MEF-CM was prepared as γ-irradiated MEF according to a known method (Xu C. Nat Biotechnol 19, 971-974) and supplemented with 8 ng/ml of bFGF. UM contained 80% DMEM/F12, 20% knockout serum replacement (KSR, Invitrogen, Carlsbad, Calif.), 1% non-essential amino acids (NEAA, Invitrogen), 1 mM L-glutamine (Invitrogen), 0.1 mM β-mercaptoethanol (Sigma, St. Louis, Mo.) and 6 ng/ml bFGF (basic fibroblast growth factor, Invitrogen). Particularly, for culture in the absence of feeder cells and serum, human embryonic stem cells and human induced pluripotent stem cells were cultured in mTeSR1 medium (StemCell Technologies). Human newborn foreskin fibroblasts (hFF, ATCC, catalog number CRL-2097; American Type Culture Collection, Manassas, Va.) were cultured in a DMEM medium containing 10% FBS (fetal bovine serum, Invitrogen), 1% non-essential amino acids, 1 mM L-glutamine and 0.1 mM β-mercaptoethanol.
AP staining was performed using a commercial AP kit (Sigma) according to the manufacturer's instruction. Images of AP-positive cells were recorded with HP Scanjet G4010. Also, bight field images were obtained with an Olympus microscope (IX51, Olympus, Japan).
In order to verify the effect of nicotinamide on the maintenance of undifferentiated state of pluripotent stem cells, the present inventors performed the following experiment. While human embryonic stem cells and human pluripotent stem cells were cultured in MEF-CM or UM on feeder-free Matrigel, various NAD precursors including nicotinamide were added to the stem cells, and then the effects of the NAD precursors on the stem cells were verified by examining the morphological change and the expression pattern of AP that is a human embryonic stem cell-specific marker.
In addition, in order to examine the effects of nicotinamide at various concentrations, various concentrations of nicotinamide were added to UM, and the degrees of maintenance of undifferentiation of human embryonic stem cells and human induced pluripotent stem cells, which are pluripotent stem cells, were examined. […] However, it was shown that the addition of a low concentration (<0.01 mM) or high concentration (>5 mM) of nicotinamide could not maintain the undifferentiated state of pluripotent stem cells (FIG. 30).
The effect of nicotinamide effective for maintaining the undifferentiated state of human embryonic stem cells and human induced pluripotent stem cells, which are pluripotent stem cells, was verified under various conditions. […] In order to eliminate the use of feeder cell-derived factors and animal serum and ensure culture conditions including a medium (CDM) whose components are known, various concentrations of nicotinamide were added to mTeSR1 (CDM) without feeder cells, and the effects thereof were examined. As a result, it could be seen that the addition of 0.1 mM of nicotinamide was effective for maintaining the undifferentiated state of various human embryonic stem cell lines (H1 and H9) and the human induced pluripotent stem cell line (hiPS) (FIG. 31).

[5] = from day 5 of culture, compared to untreated group

With `NC(=O)c1cccnc1` [nicotinamide] the “passages subcultured in an undifferentiated state” value ([1]; UM with 0.1 mM nicotinamide, TRA-1-60 staining) was ≥ 10 passages, the “karyotype after long-term subculture” value ([1]; nicotinamide-containing medium) was “normal karyotypes” and the “period of time required until hiPSCs colonies” value ([2]; cells treated with nicotinamide, 3 weeks or more generally required) was ≤ 2 weeks. For the same compound, the “increase in expression level of stem cell marker Nanog (immunostaining)” value [2, 5] was 3 times, the “increase in expression level of stem cell marker Tra-1-60 (immunostaining)” value [2, 5] was 8 times and the “mRNA expression levels of Nanog and TERT” value ([2]; from day 7, real-time PCR) was “rapidly increased”. For the same compound, the “increase in BrdU incorporation” value ([3]; 0.1 mM in mTeSR1, compared to cells cultured in mTeSR1) was 1.6 times, the “increase in BrdU incorporation” value ([3]; 1 mM in mTeSR1, compared to cells cultured in mTeSR1) was 1.2 times and the “number of AP-positive cells when feeder cells were used” value ([4]; 0.1 mM) was “most increased”. The “undifferentiated state in UM” value [4] was “maintained in an undifferentiated state”, the “undifferentiated state in UM” value ([4]; listed as Nam) was “most effectively maintained” and the “maintaining the undifferentiated state in mTeSR1 (CDM) without feeder cells” value ([4]; 0.1 mM, H1, H9 and hiPS) was “effective”. The “induction of differentiation in UM, among NAD+ precursors and NAD+” value ([4]; H9 in UM treated with nicotinamide (FIG. 29)) was “most effectively inhibited”, the “high concentration that could not maintain the undifferentiated state” value ([4]; UM) was > 5 mM and the “low concentration that could not maintain the undifferentiated state” value ([4]; UM) was < 0.01 mM. The “morphology of hESCs cultured in UM, in comparison with other NAD precursors” value ([4]; UM containing nicotinamide (1 mM), 6 days, feeder-free Matrigel) was “showed the morphology of undifferentiated human embryonic stem cells” and the “nicotinamide concentration in UM conserving undifferentiated morphology and positive AP expression” value ([4]; hESCs and hiPSCs cultured in UM) was 0.1-1 mM.
